According to patent publication US8871753B2, “Macrocyclic compounds and their use as kinase inhibitors” (Incyte Corporation, priority 2008, dated 2014):
pIC50: −log10 of the molar value. Where a name gives a salt, the structure may show the parent alone.

Legend:
Format in all cases: biochemical
[1] = target: T1, human JAK3 (a.a. 781-1124) (Homo sapiens, UniProt P52333); assay: In vitro JAK kinase assay (HTRF, phosphorylation of a biotinylated peptide), JAK3; details: Table D1
T1 construct: JAK3 (a.a. 781-1124); His tag (N); made in house; host or cells: insect cells (baculovirus)
Method in brief: (§1)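 Kinase activity was measured as phosphorylation of a biotinylated peptide, with ATP at 90 μM for JAK1, 30 μM for JAK2 and 3 μM for JAK3. Reactions ran 1 hr at room temperature, were stopped with EDTA plus SA-APC and Eu-Py20, and were read by HTRF after 40 minutes of antibody binding.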

[2] = target: T2, human JAK1 (a.a. 837-1142) (Homo sapiens, UniProt P23458); assay: In vitro JAK kinase assay (HTRF, phosphorylation of a biotinylated peptide), JAK1; details: Table D1; read-out: JAK1 IC50
T2 construct: human JAK1 (a.a. 837-1142); His tag (N); made in house; host or cells: insect cells (baculovirus)
Method in brief: as §1

TYK2 = TYK2 (Homo sapiens, UniProt P29597); assay: TYK2 kinase inhibition (Table A1); details: Table D1
[3] = target: T3, Recombinant Human Anaplastic Lymphoma Kinase (Homo sapiens, UniProt Q9UM73); assay: ALK HTRF kinase assay; details: Table D1; 90 μM ATP
T3 construct: purchased Invitrogen, Carlsbad, Calif
Method in brief: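 Recombinant human ALK phosphorylated a biotinylated synthetic peptide. Phosphotyrosine was detected by TR-FRET between a Eu-labelled anti-phosphotyrosine antibody and streptavidin-allophycocyanin. IC50 values came from fitting signal against inhibitor concentration to a four-parameter logistic equation with variable Hill slope.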

[4] = target: T4, human JAK2 (a.a. 828-1132) (Homo sapiens, UniProt O60674); assay: In vitro JAK kinase assay (HTRF, phosphorylation of a biotinylated peptide), JAK2; details: Table D1
T4 construct: JAK2 (a.a. 828-1132); His tag (N); made in house; host or cells: insect cells (baculovirus)
Method in brief: as §1

Sequence of TYK2 (P29597 whole entry): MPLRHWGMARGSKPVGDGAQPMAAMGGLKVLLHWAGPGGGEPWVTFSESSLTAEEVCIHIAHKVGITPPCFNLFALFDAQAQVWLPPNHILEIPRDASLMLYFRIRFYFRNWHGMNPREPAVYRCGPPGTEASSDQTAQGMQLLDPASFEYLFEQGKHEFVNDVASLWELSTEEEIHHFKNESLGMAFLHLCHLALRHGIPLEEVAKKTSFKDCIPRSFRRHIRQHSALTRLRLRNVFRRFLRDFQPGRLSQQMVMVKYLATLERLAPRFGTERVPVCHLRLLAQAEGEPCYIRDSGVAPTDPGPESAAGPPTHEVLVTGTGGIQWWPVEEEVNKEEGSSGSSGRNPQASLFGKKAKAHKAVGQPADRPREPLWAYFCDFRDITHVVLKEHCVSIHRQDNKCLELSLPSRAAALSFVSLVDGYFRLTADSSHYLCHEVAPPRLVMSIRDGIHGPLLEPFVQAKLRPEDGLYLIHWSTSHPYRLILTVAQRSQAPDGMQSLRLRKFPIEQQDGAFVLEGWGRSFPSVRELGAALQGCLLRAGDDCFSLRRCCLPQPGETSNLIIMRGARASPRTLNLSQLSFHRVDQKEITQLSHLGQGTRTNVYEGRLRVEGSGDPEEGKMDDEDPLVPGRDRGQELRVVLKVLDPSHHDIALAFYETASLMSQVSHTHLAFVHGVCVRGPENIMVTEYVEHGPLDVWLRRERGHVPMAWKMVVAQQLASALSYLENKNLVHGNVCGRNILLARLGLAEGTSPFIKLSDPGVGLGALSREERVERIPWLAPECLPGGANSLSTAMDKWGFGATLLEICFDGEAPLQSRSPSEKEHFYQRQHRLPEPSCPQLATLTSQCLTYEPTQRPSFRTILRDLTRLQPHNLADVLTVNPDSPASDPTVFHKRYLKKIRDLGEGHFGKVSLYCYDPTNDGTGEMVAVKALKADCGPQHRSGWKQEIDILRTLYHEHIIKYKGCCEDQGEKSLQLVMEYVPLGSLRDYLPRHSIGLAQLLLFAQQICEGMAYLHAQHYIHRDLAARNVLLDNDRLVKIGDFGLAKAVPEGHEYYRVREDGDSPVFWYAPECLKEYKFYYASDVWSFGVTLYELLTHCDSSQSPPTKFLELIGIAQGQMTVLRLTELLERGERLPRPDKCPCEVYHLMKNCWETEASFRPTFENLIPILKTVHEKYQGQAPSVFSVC
T2 sequence (P23458 849-1154): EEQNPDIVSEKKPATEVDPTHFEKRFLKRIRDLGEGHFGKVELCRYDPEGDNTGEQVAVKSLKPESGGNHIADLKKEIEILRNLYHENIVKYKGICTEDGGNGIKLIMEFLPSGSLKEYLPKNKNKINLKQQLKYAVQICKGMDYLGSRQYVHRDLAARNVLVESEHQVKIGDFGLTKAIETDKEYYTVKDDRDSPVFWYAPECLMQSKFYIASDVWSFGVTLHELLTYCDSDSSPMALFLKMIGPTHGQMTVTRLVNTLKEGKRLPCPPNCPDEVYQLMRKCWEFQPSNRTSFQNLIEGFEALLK
T3 sequence (Q9UM73 19-1620): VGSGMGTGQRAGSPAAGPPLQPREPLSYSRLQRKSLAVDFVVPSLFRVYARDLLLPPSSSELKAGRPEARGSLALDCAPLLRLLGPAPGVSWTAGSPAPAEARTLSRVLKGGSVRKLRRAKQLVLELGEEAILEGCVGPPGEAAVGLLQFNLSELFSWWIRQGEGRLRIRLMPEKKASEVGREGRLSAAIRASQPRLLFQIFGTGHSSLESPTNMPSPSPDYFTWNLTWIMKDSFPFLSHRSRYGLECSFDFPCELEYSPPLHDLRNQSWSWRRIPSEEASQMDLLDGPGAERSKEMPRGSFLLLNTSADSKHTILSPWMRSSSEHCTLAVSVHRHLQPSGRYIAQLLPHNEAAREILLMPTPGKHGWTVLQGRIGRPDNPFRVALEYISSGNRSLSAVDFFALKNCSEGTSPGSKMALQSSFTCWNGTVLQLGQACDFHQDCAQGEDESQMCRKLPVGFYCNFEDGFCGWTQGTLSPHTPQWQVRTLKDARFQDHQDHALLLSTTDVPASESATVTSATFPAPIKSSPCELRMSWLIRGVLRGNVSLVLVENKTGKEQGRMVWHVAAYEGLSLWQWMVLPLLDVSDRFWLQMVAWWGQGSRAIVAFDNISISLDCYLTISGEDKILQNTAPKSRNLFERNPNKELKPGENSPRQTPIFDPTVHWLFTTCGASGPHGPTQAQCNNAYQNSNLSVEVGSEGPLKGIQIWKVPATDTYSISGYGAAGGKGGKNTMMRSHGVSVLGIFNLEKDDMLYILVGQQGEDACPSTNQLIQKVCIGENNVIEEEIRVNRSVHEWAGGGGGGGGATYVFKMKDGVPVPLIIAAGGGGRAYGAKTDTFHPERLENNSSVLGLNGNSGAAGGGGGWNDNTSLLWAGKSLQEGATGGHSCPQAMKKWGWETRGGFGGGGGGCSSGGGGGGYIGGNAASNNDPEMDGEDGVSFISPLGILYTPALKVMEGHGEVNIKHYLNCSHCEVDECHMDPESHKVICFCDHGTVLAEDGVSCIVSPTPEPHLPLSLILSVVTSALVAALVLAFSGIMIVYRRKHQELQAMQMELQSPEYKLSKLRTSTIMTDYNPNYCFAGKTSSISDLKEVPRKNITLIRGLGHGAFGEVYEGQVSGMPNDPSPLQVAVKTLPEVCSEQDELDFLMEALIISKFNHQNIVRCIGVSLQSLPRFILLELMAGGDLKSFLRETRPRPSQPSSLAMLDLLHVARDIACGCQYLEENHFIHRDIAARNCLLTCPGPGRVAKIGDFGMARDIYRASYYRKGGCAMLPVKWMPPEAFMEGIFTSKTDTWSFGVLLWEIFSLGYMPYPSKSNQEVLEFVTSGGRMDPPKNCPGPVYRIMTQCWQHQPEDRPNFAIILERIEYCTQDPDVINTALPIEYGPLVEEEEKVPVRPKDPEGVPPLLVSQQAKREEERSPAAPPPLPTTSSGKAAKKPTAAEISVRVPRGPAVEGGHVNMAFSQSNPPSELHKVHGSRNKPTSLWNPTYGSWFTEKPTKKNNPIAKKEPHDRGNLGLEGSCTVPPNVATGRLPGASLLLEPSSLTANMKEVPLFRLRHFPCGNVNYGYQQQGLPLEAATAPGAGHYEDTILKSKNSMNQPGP
T1 sequence (P52333 781-1124): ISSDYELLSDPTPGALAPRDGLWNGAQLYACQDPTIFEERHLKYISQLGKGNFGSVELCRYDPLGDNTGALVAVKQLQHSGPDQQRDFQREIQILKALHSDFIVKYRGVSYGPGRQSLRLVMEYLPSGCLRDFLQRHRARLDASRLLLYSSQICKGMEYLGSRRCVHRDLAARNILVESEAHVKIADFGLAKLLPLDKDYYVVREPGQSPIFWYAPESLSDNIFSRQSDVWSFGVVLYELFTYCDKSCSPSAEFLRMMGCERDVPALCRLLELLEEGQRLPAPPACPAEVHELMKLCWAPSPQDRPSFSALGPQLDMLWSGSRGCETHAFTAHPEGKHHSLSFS
T4 sequence (O60674 828-1132): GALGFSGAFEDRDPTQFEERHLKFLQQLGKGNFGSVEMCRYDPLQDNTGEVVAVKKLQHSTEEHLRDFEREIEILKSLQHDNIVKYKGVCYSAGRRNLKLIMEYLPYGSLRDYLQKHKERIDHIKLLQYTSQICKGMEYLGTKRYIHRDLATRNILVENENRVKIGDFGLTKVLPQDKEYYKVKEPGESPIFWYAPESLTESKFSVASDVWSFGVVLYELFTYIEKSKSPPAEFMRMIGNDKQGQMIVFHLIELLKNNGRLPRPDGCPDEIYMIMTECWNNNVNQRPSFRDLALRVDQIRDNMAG

SMILES	pIC50 [1]	pIC50 [2]	pIC50 (TYK2)	pIC50 [3]	pIC50 [4]
O=C(c1cc2cc(c1)OCCSc1cccc(c1)Nc1nc(ncc1Cl)N2)N1CCN(c2ccccc2)CC1 [Example D53, 6-Chloro-20-[(4-phenylpiperazin-1-yl)carbonyl]-17-oxa-14-thia-2,4,8,24-tetraazatetracyclo[16.3.1.1(3,7).1(9,13)]tetracosa-1(22),3(24),4,6,9(23),10,12,18,20-nonaene bis(trifluoroacetate)]	6.56	7.57	7.55	5.94	7.47
O=C(Nc1nccs1)c1cc2cc(c1)OCCSc1cccc(c1)Nc1nc(ncc1Cl)N2 [Example D54, 6-Chloro-N-1,3-thiazol-2-yl-17-oxa-14-thia-2,4,8,24-tetraazatetracyclo[16.3.1.1(3,7).1(9,13)]tetracosa-1(22),3(24),4,6,9(23),10,12,18,20-nonaene-20-carboxamide trifluoroacetate]	6.88	7.74	7.57	5.91	7.82
Cn1c(NC(=O)c2cc3cc(c2)OCCSc2cccc(c2)Nc2nc(ncc2Cl)N3)nc2ccccc21 [Example D55, 6-Chloro-N-(1-methyl-1H-benzimidazol-2-yl)-17-oxa-14-thia-2,4,8,24-tetraazatetracyclo[16.3.1.1(3,7).1(9,13)]tetracosa-1(22),3(24),4,6,9(23),10,12,18,20-nonaene-20-carboxamide bis(trifluoroacetate)]	6.89	7.25	7.06	< 5.00	7.40
O=C(Nc1ccc2[nH]ccc2c1)c1cc2cc(c1)OCCSc1cccc(c1)Nc1nc(ncc1Cl)N2 [Example D56, 6-Chloro-N-1H-indol-5-yl-17-oxa-14-thia-2,4,8,24-tetraazatetracyclo[16.3.1.1(3,7).1(9,13)]tetracosa-1(22),3(24),4,6,9(23),10,12,18,20-nonaene-20-carboxamide trifluoroacetate]	7.38	8.00	7.85	5.71	8.32
O=C(Nc1cc2cc(c1)OCCSc1cccc(c1)Nc1nc(ncc1Cl)N2)c1ccccc1 [Example D57, N-[6-Chloro-17-oxa-14-thia-2,4,8,24-tetraazatetracyclo[16.3.1.1(3,7).1(9,13)]tetracosa-1(22),3(24),4,6,9(23),10,12,18,20-nonaen-20-yl]benzamide trifluoroacetate]	7.68	7.96	8.13	6.37	8.64
Cc1cc(C(=O)Nc2cc3cc(c2)OCCSc2cccc(c2)Nc2nc(ncc2Cl)N3)no1 [Example D58, N-[6-Chloro-17-oxa-14-thia-2,4,8,24-tetraazatetracyclo[16.3.1.1(3,7).1(9,13)]tetracosa-1(22),3(24),4,6,9(23),10,12,18,20-nonaen-20-yl]-5-methylisoxazole-3-carboxamide trifluoroacetate]	7.68	8.19	8.60	6.31	8.89
O=C(Nc1cc2cc(c1)OCCSc1cccc(c1)Nc1nc(ncc1Cl)N2)c1ccno1 [Example D59, N-[6-Chloro-17-oxa-14-thia-2,4,8,24-tetraazatetracyclo[16.3.1.1(3,7).1(9,13)]tetracosa-1(22),3(24),4,6,9(23),10,12,18,20-nonaen-20-yl]isoxazole-5-carboxamide trifluoroacetate]	8.15	8.64	8.68	6.70	9.22
O=C(Nc1cc2cc(c1)OCCSc1cccc(c1)Nc1nc(ncc1Cl)N2)c1ccncc1 [Example D60, N-[6-Chloro-17-oxa-14-thia-2,4,8,24-tetraazatetracyclo[16.3.1.1(3,7).1(9,13)]tetracosa-1(22),3(24),4,6,9(23),10,12,18,20-nonaen-20-yl]isonicotinamide bis(trifluoroacetate)]	8.30	8.70	8.89	6.89	9.22
